Our source for the remaining activity values is paper PMC6757289, “Design and Characterization of SGK3-PROTAC1, an Isoform Specific SGK3 Kinase PROTAC Degrader” (ACS Chemical Biology, 2019).

As usually defined, the remaining activity is the signal under treatment as a percentage of the control signal.

Molecules are shown by their SMILES. Like-named read-outs stand apart in the source and are kept apart here.

Common to all, as to assay: kinase profiling panel
Holding throughout (format): biochemical

One experiment addresses STK33 (Homo sapiens, UniProt Q9BYT3). The text has this: (§1) Protein kinase profiling against a Dundee panel of 140 protein kinases was undertaken at the International Centre for Protein Kinase Profiling. The result for each kinase was presented as a mean kinase activity of the reaction taken in triplicate relative to a control sample treated with DMSO. Assay conditions and abbreviations are available at http://www.kinase-screen.mrc.ac.uk.

A further experiment deals with T1, TLK1 (Homo sapiens, UniProt Q9UKI8).
T1 sequence (Q9UKI8 1-766): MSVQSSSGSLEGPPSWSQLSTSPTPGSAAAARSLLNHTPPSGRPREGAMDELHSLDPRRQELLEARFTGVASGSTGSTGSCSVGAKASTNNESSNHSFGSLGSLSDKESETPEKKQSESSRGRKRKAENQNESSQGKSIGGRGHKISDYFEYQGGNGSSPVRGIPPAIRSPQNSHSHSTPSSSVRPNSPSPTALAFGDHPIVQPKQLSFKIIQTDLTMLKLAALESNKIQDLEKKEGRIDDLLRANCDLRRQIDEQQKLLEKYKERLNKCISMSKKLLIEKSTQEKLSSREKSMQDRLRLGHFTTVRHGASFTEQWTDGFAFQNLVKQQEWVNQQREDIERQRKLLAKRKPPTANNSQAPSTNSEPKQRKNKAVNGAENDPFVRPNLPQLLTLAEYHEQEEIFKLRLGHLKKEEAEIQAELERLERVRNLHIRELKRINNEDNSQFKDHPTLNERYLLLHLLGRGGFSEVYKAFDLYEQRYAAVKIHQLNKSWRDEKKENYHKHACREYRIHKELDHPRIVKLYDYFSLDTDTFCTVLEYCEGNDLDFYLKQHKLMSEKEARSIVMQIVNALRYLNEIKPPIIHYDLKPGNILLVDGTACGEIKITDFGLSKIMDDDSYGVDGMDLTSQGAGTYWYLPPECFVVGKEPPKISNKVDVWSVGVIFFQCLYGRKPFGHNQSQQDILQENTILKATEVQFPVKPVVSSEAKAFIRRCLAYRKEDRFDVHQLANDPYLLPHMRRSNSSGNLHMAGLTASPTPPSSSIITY
The settings on record: read-out: % Activity Remaining.
Text: as §1

The target in the next experiment is EF2K (Homo sapiens, UniProt O00418). The settings on record: read-out: % Activity Remaining.
Text: as §1

The target in another experiment is S6K1 (Homo sapiens, UniProt P23443). The settings on record: read-out: % Activity Remaining.
Text: as §1

For a further experiment, the target named is MLK3 (Homo sapiens, UniProt Q16584). To be noted: read-out: % Activity Remaining.
Text: as §1

Another experiment concerns the target MPSK1 (Homo sapiens, UniProt O75716). To be noted: read-out: % Activity Remaining.
Text: as §1

A further experiment deals with T2, ULK1 (Homo sapiens, UniProt O75385).
T2 sequence (O75385 1-1050): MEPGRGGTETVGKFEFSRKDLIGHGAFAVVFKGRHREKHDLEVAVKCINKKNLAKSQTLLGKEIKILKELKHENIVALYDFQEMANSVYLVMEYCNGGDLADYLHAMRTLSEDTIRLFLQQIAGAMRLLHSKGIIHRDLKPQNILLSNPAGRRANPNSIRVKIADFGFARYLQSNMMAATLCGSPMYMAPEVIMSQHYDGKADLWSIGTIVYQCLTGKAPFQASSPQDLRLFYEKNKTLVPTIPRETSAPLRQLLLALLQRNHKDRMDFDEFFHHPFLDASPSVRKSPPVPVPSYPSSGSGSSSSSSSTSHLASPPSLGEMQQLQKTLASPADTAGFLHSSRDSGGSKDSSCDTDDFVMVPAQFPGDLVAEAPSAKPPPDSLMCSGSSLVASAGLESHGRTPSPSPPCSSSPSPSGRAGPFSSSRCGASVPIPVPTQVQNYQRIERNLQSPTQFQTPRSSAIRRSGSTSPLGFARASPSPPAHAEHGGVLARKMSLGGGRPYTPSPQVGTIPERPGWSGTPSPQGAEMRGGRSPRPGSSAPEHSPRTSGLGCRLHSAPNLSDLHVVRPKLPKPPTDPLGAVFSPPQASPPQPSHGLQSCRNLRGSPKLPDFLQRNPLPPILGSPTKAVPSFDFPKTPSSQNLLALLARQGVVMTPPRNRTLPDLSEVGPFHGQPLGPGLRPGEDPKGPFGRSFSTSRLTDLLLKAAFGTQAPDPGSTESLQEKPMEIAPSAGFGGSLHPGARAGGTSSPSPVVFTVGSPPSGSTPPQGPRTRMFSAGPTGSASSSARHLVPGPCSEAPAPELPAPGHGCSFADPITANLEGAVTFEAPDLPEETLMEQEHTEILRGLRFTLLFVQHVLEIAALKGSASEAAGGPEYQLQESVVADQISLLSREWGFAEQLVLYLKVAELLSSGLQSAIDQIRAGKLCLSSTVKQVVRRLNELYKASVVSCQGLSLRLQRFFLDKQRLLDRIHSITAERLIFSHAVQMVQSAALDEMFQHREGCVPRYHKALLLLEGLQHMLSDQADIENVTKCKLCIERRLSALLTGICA
To be noted: read-out: % Activity Remaining.
Text: as §1

The target of the next experiment is T3, BRSK1 (Homo sapiens, UniProt Q8TDC3).
T3 sequence (Q8TDC3 1-778): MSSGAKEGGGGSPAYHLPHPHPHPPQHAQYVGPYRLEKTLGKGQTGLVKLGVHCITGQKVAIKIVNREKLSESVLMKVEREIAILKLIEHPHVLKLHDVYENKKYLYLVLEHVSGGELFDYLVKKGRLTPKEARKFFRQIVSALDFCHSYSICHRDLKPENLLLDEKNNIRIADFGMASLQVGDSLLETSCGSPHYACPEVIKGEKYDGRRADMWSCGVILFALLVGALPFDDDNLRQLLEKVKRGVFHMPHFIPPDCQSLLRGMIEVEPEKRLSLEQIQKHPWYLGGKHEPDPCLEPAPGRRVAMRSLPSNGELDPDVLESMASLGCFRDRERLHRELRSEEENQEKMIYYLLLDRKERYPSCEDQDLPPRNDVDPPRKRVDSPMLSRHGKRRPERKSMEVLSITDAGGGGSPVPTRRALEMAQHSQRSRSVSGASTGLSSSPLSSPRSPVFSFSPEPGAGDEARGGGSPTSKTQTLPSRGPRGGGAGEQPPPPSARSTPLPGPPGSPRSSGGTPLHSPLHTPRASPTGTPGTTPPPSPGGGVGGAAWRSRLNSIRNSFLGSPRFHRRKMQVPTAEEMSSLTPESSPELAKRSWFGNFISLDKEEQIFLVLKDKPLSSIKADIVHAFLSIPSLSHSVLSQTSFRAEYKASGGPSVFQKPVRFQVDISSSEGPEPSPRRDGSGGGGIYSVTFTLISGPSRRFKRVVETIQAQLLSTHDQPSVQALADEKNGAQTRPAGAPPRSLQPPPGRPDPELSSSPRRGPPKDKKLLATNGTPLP
The settings on record: read-out: % Activity Remaining.
Text: as §1

STK33, sequence (Q9BYT3 whole entry): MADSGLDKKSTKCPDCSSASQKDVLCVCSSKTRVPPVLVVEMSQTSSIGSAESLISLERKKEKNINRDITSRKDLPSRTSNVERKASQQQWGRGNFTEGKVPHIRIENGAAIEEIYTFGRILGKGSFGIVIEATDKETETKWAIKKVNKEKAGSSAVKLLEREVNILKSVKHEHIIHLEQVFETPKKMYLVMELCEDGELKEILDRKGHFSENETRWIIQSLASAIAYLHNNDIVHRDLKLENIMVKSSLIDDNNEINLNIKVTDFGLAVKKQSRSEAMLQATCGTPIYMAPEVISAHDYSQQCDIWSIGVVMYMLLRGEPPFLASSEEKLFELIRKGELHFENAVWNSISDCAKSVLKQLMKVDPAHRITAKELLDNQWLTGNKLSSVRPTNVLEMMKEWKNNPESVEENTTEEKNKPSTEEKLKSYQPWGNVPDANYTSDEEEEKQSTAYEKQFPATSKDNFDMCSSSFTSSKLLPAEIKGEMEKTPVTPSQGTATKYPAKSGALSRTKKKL
MLK3, sequence (Q16584 whole entry): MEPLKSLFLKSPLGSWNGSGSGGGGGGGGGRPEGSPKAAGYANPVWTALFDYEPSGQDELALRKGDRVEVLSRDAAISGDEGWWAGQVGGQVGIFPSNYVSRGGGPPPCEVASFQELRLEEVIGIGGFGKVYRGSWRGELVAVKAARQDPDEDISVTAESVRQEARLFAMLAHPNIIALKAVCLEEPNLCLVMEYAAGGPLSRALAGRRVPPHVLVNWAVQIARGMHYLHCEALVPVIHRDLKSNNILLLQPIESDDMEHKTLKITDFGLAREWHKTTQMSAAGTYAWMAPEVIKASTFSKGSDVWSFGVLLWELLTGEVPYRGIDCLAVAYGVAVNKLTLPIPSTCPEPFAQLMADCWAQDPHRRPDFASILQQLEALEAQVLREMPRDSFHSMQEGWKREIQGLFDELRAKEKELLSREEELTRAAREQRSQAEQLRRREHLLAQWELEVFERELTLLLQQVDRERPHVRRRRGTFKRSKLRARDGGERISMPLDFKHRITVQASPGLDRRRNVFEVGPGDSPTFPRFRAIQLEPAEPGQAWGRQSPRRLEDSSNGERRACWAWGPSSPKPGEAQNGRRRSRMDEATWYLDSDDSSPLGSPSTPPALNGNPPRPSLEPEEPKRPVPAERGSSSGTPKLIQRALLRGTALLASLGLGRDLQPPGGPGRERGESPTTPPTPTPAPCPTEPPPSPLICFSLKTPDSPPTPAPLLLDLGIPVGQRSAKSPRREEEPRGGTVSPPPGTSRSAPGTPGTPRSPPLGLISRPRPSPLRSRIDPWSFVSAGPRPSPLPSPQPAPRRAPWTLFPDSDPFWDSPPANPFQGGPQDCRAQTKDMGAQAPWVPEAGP
MPSK1, sequence (O75716 whole entry): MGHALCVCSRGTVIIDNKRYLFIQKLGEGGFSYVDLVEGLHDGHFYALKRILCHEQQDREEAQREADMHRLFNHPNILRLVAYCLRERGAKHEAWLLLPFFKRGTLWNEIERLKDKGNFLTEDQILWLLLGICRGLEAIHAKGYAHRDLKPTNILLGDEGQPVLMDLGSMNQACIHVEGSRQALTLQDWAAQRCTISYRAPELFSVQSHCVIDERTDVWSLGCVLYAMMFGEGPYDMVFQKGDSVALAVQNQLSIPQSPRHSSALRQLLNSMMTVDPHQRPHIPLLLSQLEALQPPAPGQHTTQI
S6K1, sequence (P23443 whole entry): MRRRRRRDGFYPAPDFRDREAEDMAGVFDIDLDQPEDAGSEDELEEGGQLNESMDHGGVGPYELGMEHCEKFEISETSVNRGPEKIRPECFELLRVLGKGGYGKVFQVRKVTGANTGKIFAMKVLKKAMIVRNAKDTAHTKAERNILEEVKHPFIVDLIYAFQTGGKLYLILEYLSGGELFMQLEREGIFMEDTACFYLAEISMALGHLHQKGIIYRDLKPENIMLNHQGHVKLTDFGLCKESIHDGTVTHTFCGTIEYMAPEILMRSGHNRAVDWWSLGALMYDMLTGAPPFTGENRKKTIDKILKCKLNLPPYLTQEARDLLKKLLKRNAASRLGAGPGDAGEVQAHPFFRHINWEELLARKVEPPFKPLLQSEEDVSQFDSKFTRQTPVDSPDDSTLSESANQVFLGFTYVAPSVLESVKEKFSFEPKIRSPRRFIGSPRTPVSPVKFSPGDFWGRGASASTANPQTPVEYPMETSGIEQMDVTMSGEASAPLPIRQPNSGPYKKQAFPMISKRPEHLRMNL

On to `COc1ccc(Cl)c(S(=O)(=O)Nc2ccc(-c3nc(OC[C@H]4CNCCO4)c4c(C)n[nH]c4n3)cc2)c1` [290-R, reference compound], for which the remaining activity at 1 µM at STK33 came to 74%; on TLK1 it was 89%; on EF2K, 112%; at S6K1 it was 1%; on MLK3 it was 10%; at MPSK1, 82%. The results for the remaining activity at 1 µM on ULK1 and on BRSK1 were 78% and 95%, respectively.
Consider `Cc1ccc(F)c(S(=O)(=O)Nc2ccc(-c3nc(OC[C@H]4CNCCO4)c4cn[nH]c4n3)cc2)c1` [308-R, reference compound], for which the remaining activity at 1 µM was 36% on STK33; 108% on TLK1; 128% at EF2K; 1% on S6K1; 24% on MLK3; 116% on MPSK1. In addition, the remaining activity at 1 µM was found to be 103% on ULK1 and 106% on BRSK1.
As for `Cc1ccc(F)c(S(=O)(=O)Nc2ccc(-c3nc(OC[C@H]4CN(CCCCCCOCCOCCOCC(=O)N[C@H](C(=O)N5C[C@H](O)C[C@H]5C(=O)NCc5ccc(-c6scnc6C)cc5)C(C)(C)C)CCO4)c4cn[nH]c4n3)cc2)c1` [SGK3-PROTAC1], the remaining activity at 1 µM worked out at 110% at STK33; 102% at TLK1 (1 µM); 98% at EF2K (1 µM); 19% at S6K1 (1 µM); 71% on MLK3 (1 µM); 127% on MPSK1 (1 µM). Moreover, the values for the remaining activity at 1 µM on ULK1 (1 µM) and at BRSK1 (1 µM) were 116% and 108%, respectively.
Take `Cc1ccc(F)c(S(=O)(=O)Nc2ccc(-c3nc(OC[C@H]4CN(CCCCCCOCCOCCOCC(=O)N[C@H](C(=O)N5C[C@@H](O)C[C@H]5C(=O)NCc5ccc(-c6scnc6C)cc5)C(C)(C)C)CCO4)c4cn[nH]c4n3)cc2)c1` [cisSGK3-PROTAC1]: the remaining activity at 1 µM at STK33 came out at 109%; on TLK1 (1 µM), 109%; on EF2K (1 µM), 105%; on S6K1 (1 µM) it was 20%; on MLK3 (1 µM) it was 76%; on MPSK1 (1 µM), 139%. Besides, the remaining activity at 1 µM at ULK1 (1 µM) amounted to 112%; at BRSK1 (1 µM), 106%.
